What is called melting point is the temperature, or range, at which the solid turns liquid.

Where only a bound is given, the exact number is not on record here.

`C/C=C1\NC(=O)N(CCCC)C1=O` registered a melting point of 127 °C. As for `CC(C)(C)c1ccc(-n2c(CC(=O)O)c(C(=O)O)c3cc(Oc4ccc(C(=O)O)cn4)c(Cl)cc32)cc1`, the figure is 223 to 235 °C. The compound `O=C(O)c1cn(-c2cccnc2)nc1Br` gave a melting point of 270 to 278 °C. In turn, `CCC(=O)Nc1cc(-c2cccnc2)nc(-c2ccco2)n1` showed a melting point of 252 to 253 °C. In the case of `CN1CCNC1=NC(c1ccccc1)c1ccccc1` it was 226 to 228 °C; in that of `O=c1c(-c2ccccc2)c(Cn2ccnc2)oc2ccccc12`, 168 to 171 °C. In the case of `Cc1cccc(OC(=O)C(=O)c2c[nH]c3ccccc23)c1`, the melting point lay within 194 to 197 °C. In the case of `COCCCNCc1ccc(-c2cc3ncnc(Nc4ccc5[nH]ccc5c4)c3s2)cc1` it was 160 to 175 °C; in that of `CNS(=O)(=O)c1ccc(N2CCN(c3ccncc3)CC2)cc1`, 204 to 206 °C; in that of `CNC(=O)c1cccc(NC(=O)COc2ccccc2Cl)c1`, 172 to 173 °C. As for `COc1ccc(C(=O)CC(=O)c2snc(Cl)c2Cl)cc1`, the figure is 138 to 139 °C; as for `COc1ccc(Oc2cc3c(cc2Cl)C=C(C(=O)O)C(C(F)(F)F)O3)cc1` (centres undefined), 213 to 214 °C; as for `C=CCOc1ccc2c(C)cc(=O)oc2c1C(=O)C=Cc1cccnc1`, 124 to 126 °C. In the case of `CCC(=O)OCOC(=O)Nc1ccc(Cl)cc1` it was 90 to 91 °C. `COc1cccc(C(C)N(C)CCCOc2ccc(S(=O)(=O)c3c(C(C)C)cn4ccccc34)cc2)c1` (centres undefined) came in with a melting point of 111 to 113 °C. With `O=C(NCc1ccc(Cl)cc1)c1cnc2ccc(C#CCO)cn2c1=O`, the melting point lay within 179 to 181 °C. `N#Cc1ccccc1-c1ccc(CCl)cn1` registered a melting point of 97 to 98 °C. In the case of `NS(=O)(=O)c1ccc(C2=C(c3cccc(F)c3F)CCC2)cc1` it was 133 to 134 °C; in that of `O=C1NC(=O)c2c1c(-c1ccccc1Cl)cc1c2c2cc(O)ccc2n1CCC(O)CO` (centres undefined), 263 to 267 °C.

Turning to `COC(=O)C(C)(C)CCCOc1cc(C)c(NC(C)=O)cc1C`, the melting point is 99 to 100 °C.

With `CCCn1nc2c(N)nc3c(c2c1CC(C)(C)O)CCCC3`, the melting point is 143 to 145 °C. With `O=C1NC(=O)C(=Cc2cccs2)N1`, the melting point lay in the range of 253 to 255 °C. For the compound `CCOC(=O)C(C)(C)Oc1ccc(CCNC(=O)C=Cc2ccccc2Cl)cc1`, the melting point turned out to be 76 °C.

In turn, `c1ccc(CN2CCc3[nH]c4cccc(-c5ccccc5)c4c3CC2)cc1` came in with a melting point of 161 to 163 °C. On to `COc1c(C)c(C(=O)c2ccc3[nH]c(=O)n(O)c(=O)c3c2)n2ccccc12`, for which the melting point is 300 °C. As for `CCCOC(Nc1ccccc1)(OCCC)c1ccnc(C(=O)c2ccc(C)cc2)c1`, the figure is 120 to 121 °C; as for `COc1cc(/C=C2/C(C)=C(CC(=O)O)c3cc(F)ccc32)cc(Br)c1OC`, 164 °C; as for `CN1CCN(C(=O)c2ccc([N+](=O)[O-])cc2[N+](=O)[O-])CC1`, 130 to 132 °C.

For the compound `CCCn1nc(C(=O)OCC)cc1CC(C)(C)NC(=O)OC(C)(C)C`, the melting point was in the range of 109 to 111 °C. As for `Cc1c(Br)c2c(c3c1C(c1ccc(C(C)C)cc1)CO3)CCC2` (centres undefined), the figure is 127 to 128 °C; as for `CNC(=O)C(=NOC)c1ccccc1COc1ncc(C(=O)O)cc1Cl`, 189 to 195 °C; as for `CC(C)(C)c1nc(Cl)c2ccccc2c1-c1ccccc1`, 139 to 140 °C. In turn, `O=C1NCCCN1c1ccccc1` yielded a melting point of 210 to 211 °C. Turning to `COc1ccc(COCc2nc(C(C)C)c(Sc3cc(Cl)cc(Cl)c3)[nH]2)cc1`, the melting point lay within 96 to 97 °C. In the case of `CN1C(=O)Cc2ccc(Cl)cc21` it was 116 to 117 °C. `C=C1CCC(C2OC(=O)NC2=O)CC1` (centres undefined) displayed a melting point of 63 to 64 °C. As for `CCOC(OCC)c1cn2cccc(CO)c2n1`, the figure is 87 to 89 °C; as for `CC(C)n1c(=O)n(C(N)=O)c2ccccc21`, 195 to 196 °C; as for `CN1CCN(c2c(Cl)cc3c(=O)c(C(=O)O)cn(C4CC4)c3c2Cl)CC1`, > 300 °C.

In turn, `COc1ccc(C(O)c2ccccc2OC)cn1` (centres undefined) registered a melting point of 83 to 84 °C. As for `CC12C=CC(=O)C=C1CCC1C3=CC(O)C(O)(C(=O)CO)C3(C)CC(O)C12` (centres undefined), the figure is 240 to 242 °C; as for `CCC1CCCCN1CC(=O)NN=Cc1c(-c2ccccc2)nn2ccccc12` (centres undefined), 156 to 158 °C. As for `CCCN(CCC)CC1CCCCN1CCNC(=O)N1c2ccccc2C(=O)Nc2cccc(Cl)c21` (centres undefined), the figure is 71 to 78 °C.

`Cc1cc(C#Cc2cnn3c(C(F)(F)F)cc(-c4ccc(C(F)(F)F)cc4)nc23)ccn1` showed a melting point of 206 °C.

`CC(C)(C)NS(=O)(=O)c1ccc([Si](C)(C)C)s1` showed a melting point of 102 to 104 °C. As for `O=C(O)c1c[nH]c(SCc2ccccc2)c1SCc1ccccc1`, the figure is 160 to 162 °C. In turn, `O=C1C(=O)c2ccccc2C2=C1SCC1(CCN(C(=O)c3ccncc3)CC1)O2` gave a melting point of 267 to 269 °C. As to `CCc1ccc(-c2ccc(CCc3ccc(C)cc3)cc2)c(F)c1`, the melting point came out at 65 °C.

As for `Cc1nc(-c2ccc(Cl)cc2)sc1C(N)=O`, the melting point fell in the range of 236 to 237 °C. With `N=C(N)Nc1cc(Cl)ccc1N1CCOCC1`, the melting point was in the range of 135 to 138 °C. `Cc1c(Cl)cccc1Nc1ncccc1[N+](=O)[O-]` gave a melting point of 134 to 135 °C. `O=C(CC1CCNCC1)Nc1cccc(-c2ccnc3c(C(=O)c4cccs4)cnn23)c1` showed a melting point of 216 to 220 °C. Turning to `O=C(Nc1ccc2ccccc2n1)c1ccc(COc2ccc3c(c2)CCC(CCN2CCCCC2)C3)cc1` (centres undefined), the melting point fell in the range of 135 to 138 °C. In the case of `N#Cc1c(F)c(F)c(O)c(F)c1F` it was 128 to 129 °C; in that of `CCOC(=O)C1=Cc2c(ccc(Cl)c2I)OC1C(F)(F)F` (centres undefined), 117 to 119 °C; in that of `COc1c(F)cc2c(c1F)CC(n1cc[nH]c1=S)CC2` (centres undefined), 228 to 230 °C. In the case of `CCCc1cc(=O)[nH]c(NC(=N)Nc2ccccc2)n1` it was 196 °C; in that of `O=C(O)C(CN1CCCC1)C(C(=O)O)P(=O)(O)O` (centres undefined), 122 to 124 °C; in that of `O=C(O)CCc1cc(F)cc(F)c1`, 56 °C.

With `Cc1ccc(Cc2cnc(NCCCCc3ncc(Cl)cc3C)[nH]c2=O)cn1`, the melting point is 140 to 141 °C. In the case of `CC1CC(C)(C)C(=O)C=C1Cc1ccc(Cl)cc1` (centres undefined) it was 76 to 77 °C; in that of `CCN1CCCC1CNC(=O)c1sc(C=O)c(C)c1OC` (centres undefined), 122 to 123 °C. As for `O=C(O)[C@H](CCCCO)N1C(=O)c2ccccc2C1=O`, the figure is 162 to 163 °C; as for `CCOC(=O)CCC(=O)c1ccc(-c2ccccc2F)cc1`, 56 to 58 °C. Take `COc1ccccc1N1CCN(Cc2cnc(N)nc2N)CC1`: the melting point lay within 195 to 196 °C. On to `COc1cc2c(cc1Nc1ncc(Cl)c(Nc3ccccc3S(=O)(=O)N(C)C)n1)CCN(CCS(C)(=O)=O)CC2`, for which the melting point was in the range of 84 to 101 °C. The compound `CS(=O)(=O)c1ccc(N2CC=C(N3CCCC3)CC2)cc1` came in with a melting point of 141 to 143 °C. In the case of `Cc1cc(-n2c(=O)cc(C(F)(F)F)n(C)c2=O)c(F)cc1C#N` it was 186 °C. In turn, `C=C(C)COc1cc(C)c(NC(C)=O)cc1C` came in with a melting point of 128 to 132 °C.

Regarding `COC(=O)NC=Cc1ccc(OCC(O)CNC(C)CC(N)=O)cc1` (centres undefined), the melting point lay in the range of 109 to 111 °C. Compound `CCCCCCCCCCCCCCCCCC(=O)c1cc(C(=O)O)ccc1O` displayed a melting point of 170 °C. As for `CC(C)NC(=O)CN1CCN(c2nnc(N)[nH]2)CC1`, the figure is 225 to 226 °C; as for `O=C1CN2C(=O)C(c3ccccc3)c3cc(Cl)cc(c32)N1` (centres undefined), 156 to 159 °C. As for `CCCC1C(=O)C(NC(=O)C2CCc3ccccc3C2)=C(N)C(CCC)C1=O` (centres undefined), the figure is 202 to 204 °C; as for `COC(=O)[C@@H](Cc1ccccc1)Oc1c(Br)cc(-c2c3ccccc3c(Br)c3sc(C)c(C)c23)cc1Br`, 174 to 175 °C; as for `CCCCCCCCCCCCCC(=O)O[C@H](CCCCCCCCCCC)CC(=O)N[C@@H](CO)C(=O)OCc1ccccc1`, 56 to 61 °C. `O=C(O)CCCc1cc2nc(Cl)ccc2n1S(=O)(=O)c1cccc(C(F)(F)F)c1` came in with a melting point of 188 °C.

Turning to `CN(C)CCCc1ccc(OCCCNc2nc(N)nn2C)cc1`, the melting point fell in the range of 112 to 114 °C. As for `O=C(O)C1CC2CC(CP(=O)(O)O)CCC2CN1` (centres undefined), the figure is 208 to 211 °C. `C(=C\c1nc(COc2ccc(CCCCn3ccnc3-c3ccccc3)cc2)co1)/c1ccccc1` yielded a melting point of 85 to 86 °C. As for `CN(C)C(=N[N+](=O)[O-])N(Cc1cnc(Cl)s1)C(=S)Oc1ccccc1`, the figure is 161 to 162 °C; as for `CCOC(=O)c1cn(-c2ccc(OC)cc2)cn1`, 93 to 94 °C; as for `Cc1cc(Br)c2ncn([C@H](C)[C@](O)(Cn3cncn3)c3ccc(F)cc3F)c(=O)c2c1`, 116 to 123 °C. As for `COc1ccc(O)c2c1C(=O)N(Cc1ccccc1)S2=O` (centres undefined), the figure is 235 to 237 °C; as for `Fc1cccc(Cc2cncnc2N2CCCC2)c1`, 51 to 54 °C; as for `COc1ccc([C@@H]2OC(=O)[C@H](Cc3ccccc3)N2C(=O)OCc2ccccc2)cc1`, 85 °C. As to `Cc1ccc(C(=O)Nc2ccccc2C(CCC(=O)O)=NO)cc1`, the melting point was 165 to 168 °C. For `COC(=O)COc1ccc2ccc(O)c(C(C)=O)c2c1`, the melting point is 113 to 114 °C. For the compound `Cc1ccc(S(=O)(=O)N(CCO)c2cc(C)cc([N+](=O)[O-])c2N)cc1`, the melting point amounted to 201 °C.

`Nc1nc(C(F)(F)F)cc(=O)n1N` returned a melting point of 215 to 218 °C. In the case of `COC(=O)Cc1cc(C(=O)c2ccccc2Cl)c(N)s1` it was 102 to 105 °C. In the case of `NS(=O)(=O)c1ccccc1-c1cnco1` it was 157 to 163 °C; in that of `NS(=O)(=O)OCCOc1cccc(Cl)c1`, 66 to 69 °C; in that of `CC(C)SC1NC(=O)C1NC(=O)COc1ccccc1` (centres undefined), 128 to 130 °C.

(Values after a melting point compilation (Tetko et al.; mined from patent text by program, amines drawn as free bases though some values may be those of a salt).)
